Measured values from patent publication US7195893B2, “Nucleic acids encoding α2δ calcium channel subunits and methods for making and using them” (Neuromed Pharmaceuticals Ltd., priority 2003, dated 2007).
Where a name gives a salt, the structure may show the parent alone.

Experiments:
α2δ-2 = α2δ-2 (Homo sapiens, UniProt Q9NY47); details: Marais et al. 2001; cited from earlier work
[1] = biological target: T1, rat α1B+β1b+chicken α2δ Ca2+ channel (Rattus norvegicus, UniProt Q02294); assay: whole-cell patch clamp screening for calcium channel blockers; assay type: cell-based; details: 600 nM, HEK cells, n=3, FIG. 4
T1 construct: expressed in transfected cells; host or cells: HEK 293
T1 sequence (Q02294 whole entry): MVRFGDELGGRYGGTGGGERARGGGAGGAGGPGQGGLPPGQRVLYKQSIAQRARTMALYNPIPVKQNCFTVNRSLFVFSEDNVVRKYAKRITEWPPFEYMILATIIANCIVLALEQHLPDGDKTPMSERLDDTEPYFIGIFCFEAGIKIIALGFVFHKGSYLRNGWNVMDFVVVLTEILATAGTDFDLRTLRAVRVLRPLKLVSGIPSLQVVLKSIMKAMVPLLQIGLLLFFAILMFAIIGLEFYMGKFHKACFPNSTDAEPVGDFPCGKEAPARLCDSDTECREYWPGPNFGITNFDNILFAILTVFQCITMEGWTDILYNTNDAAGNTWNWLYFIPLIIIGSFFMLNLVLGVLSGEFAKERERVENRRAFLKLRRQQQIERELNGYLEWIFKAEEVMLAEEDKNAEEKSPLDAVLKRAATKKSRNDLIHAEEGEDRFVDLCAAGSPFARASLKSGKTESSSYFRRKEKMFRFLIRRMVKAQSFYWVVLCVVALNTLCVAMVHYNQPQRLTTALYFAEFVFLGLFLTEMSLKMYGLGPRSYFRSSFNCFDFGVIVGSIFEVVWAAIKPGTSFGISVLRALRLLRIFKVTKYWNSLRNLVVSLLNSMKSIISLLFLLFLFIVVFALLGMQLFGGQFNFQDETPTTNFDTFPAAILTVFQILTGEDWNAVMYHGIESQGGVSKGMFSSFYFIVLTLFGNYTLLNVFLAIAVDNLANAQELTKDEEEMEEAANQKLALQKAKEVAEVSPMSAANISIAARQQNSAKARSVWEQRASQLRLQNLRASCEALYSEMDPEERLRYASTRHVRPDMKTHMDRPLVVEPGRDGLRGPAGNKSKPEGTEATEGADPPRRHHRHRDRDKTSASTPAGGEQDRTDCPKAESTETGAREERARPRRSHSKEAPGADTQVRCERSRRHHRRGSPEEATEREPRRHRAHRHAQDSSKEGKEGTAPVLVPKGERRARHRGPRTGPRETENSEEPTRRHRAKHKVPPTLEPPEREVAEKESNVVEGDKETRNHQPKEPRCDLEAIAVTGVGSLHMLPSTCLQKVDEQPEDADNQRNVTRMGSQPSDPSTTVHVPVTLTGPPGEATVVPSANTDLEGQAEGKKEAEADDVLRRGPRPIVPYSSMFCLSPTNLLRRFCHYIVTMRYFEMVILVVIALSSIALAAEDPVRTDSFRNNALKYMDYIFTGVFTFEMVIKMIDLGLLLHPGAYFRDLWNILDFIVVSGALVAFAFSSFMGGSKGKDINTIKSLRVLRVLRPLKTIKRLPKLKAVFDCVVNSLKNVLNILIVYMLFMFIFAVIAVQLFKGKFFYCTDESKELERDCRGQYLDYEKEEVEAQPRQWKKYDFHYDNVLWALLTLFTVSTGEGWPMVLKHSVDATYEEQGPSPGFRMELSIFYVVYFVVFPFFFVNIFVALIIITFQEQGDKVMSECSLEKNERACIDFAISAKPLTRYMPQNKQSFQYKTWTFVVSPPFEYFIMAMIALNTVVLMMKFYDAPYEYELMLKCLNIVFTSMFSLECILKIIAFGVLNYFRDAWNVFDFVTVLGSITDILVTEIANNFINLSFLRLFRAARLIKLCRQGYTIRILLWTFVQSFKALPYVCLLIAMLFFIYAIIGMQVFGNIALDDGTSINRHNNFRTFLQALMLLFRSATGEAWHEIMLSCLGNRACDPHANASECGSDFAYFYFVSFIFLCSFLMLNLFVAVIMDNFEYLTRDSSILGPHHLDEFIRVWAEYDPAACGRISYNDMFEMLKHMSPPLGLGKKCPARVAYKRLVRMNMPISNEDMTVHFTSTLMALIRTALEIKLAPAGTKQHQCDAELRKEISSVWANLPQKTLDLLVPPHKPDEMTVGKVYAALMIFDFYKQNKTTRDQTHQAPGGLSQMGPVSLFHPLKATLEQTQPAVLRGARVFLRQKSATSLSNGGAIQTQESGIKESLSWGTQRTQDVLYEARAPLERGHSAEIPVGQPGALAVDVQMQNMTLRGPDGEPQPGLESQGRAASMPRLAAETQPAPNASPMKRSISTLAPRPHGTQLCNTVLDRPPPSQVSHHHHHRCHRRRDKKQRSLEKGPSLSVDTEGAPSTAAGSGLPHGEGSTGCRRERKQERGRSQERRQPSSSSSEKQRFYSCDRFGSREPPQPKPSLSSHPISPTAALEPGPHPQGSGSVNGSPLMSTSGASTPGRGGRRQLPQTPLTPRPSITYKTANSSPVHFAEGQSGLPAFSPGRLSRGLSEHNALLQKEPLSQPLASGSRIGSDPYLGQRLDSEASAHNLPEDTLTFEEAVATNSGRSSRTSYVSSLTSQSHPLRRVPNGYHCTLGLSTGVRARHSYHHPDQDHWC
Experimental: After an incubation period of 24 to 72 hrs, the culture medium was removed and replaced with an external recording solution containing (in mM) 5 BaCl, 129 CsCl, 1 MgCl2, 10 HEPES, 10 glucose, pH 7.4 with CsOH. Whole-cell patch clamp recordings were made with an Axopatch 200B amplifier (Axon Instruments, USA). Recording electrodes with typical resistances of 4–8 MΩ were backfilled with (in mM) 108 caesium-methansulfonate, 2 MgCl2, 10 HEPES, 11 EGTA, 2 ATP, pH 7.2 with CsOH. To create command potentials and acquire data, Clampex 8.2 software (Axon Instruments, USA) and a Digidata 1322A A/D converter interface (Axon Instrument, USA) were used. Currents were elicited at test potential of +20 mV (50 ms duration) from a holding potential of −80 mV. Leak and capacitance currents were subtracted on-line with a standard P/4 protocol. Evoked currents were filtered by a low-pass Bessel filter set at 1 kHz. Signals were acquired at 2.02 kHz and analyzed offline using pClamp 8.2 (Axon Instruments, USA) and Origin (OriginLab Corporation, USA) software. The effects of co-expressing the α2δ subunit of Example 1 with the rat α1B+β1b calcium channel subunits were tested by comparing average current density (Ipeak/cell capacitance) with and without α2δ.
To screen for calcium channel blockers, the whole-cell patch clamp recording technique used was as described in Example 2. […]

rat α1B+β1b Ca2+ channel = assay: whole-cell patch clamp, average current density with and without α2δ in transfected HEK 293 cells; assay type: cell-based; details: HEK 293, 6 cells, test potential +20 mV, holding −80 mV, mean±S.E.M.
Experimental: Human embryonic kidney cells, HEK 293 (ATCC# CRL 1573) were grown in standard DMEM medium supplemented with 2 mM glutamine and 10% fetal bovine serum and transfected by a standard calcium-phosphate-DNA co-precipitation method or by lipofection with the full-length chicken α2δ-1 calcium channel cDNA in the mammalian expression vector pBK-RSV (see Current protocols in Molecular Biology): alone or in combination with expression vectors encoding α1 and β subunits, and with vectors expressing green fluorescent protein (GFP).
After an incubation period of 24 to 72 hrs, the culture medium was removed and replaced with an external recording solution containing (in mM) 5 BaCl, 129 CsCl, 1 MgCl2, 10 HEPES, 10 glucose, pH 7.4 with CsOH. Whole-cell patch clamp recordings were made with an Axopatch 200B amplifier (Axon Instruments, USA). Recording electrodes with typical resistances of 4–8 MΩ were backfilled with (in mM) 108 caesium-methansulfonate, 2 MgCl2, 10 HEPES, 11 EGTA, 2 ATP, pH 7.2 with CsOH. To create command potentials and acquire data, Clampex 8.2 software (Axon Instruments, USA) and a Digidata 1322A A/D converter interface (Axon Instrument, USA) were used. […] Signals were acquired at 2.02 kHz and analyzed offline using pClamp 8.2 (Axon Instruments, USA) and Origin (OriginLab Corporation, USA) software. […]

α2δ-2, sequence (Q9NY47 19-1150): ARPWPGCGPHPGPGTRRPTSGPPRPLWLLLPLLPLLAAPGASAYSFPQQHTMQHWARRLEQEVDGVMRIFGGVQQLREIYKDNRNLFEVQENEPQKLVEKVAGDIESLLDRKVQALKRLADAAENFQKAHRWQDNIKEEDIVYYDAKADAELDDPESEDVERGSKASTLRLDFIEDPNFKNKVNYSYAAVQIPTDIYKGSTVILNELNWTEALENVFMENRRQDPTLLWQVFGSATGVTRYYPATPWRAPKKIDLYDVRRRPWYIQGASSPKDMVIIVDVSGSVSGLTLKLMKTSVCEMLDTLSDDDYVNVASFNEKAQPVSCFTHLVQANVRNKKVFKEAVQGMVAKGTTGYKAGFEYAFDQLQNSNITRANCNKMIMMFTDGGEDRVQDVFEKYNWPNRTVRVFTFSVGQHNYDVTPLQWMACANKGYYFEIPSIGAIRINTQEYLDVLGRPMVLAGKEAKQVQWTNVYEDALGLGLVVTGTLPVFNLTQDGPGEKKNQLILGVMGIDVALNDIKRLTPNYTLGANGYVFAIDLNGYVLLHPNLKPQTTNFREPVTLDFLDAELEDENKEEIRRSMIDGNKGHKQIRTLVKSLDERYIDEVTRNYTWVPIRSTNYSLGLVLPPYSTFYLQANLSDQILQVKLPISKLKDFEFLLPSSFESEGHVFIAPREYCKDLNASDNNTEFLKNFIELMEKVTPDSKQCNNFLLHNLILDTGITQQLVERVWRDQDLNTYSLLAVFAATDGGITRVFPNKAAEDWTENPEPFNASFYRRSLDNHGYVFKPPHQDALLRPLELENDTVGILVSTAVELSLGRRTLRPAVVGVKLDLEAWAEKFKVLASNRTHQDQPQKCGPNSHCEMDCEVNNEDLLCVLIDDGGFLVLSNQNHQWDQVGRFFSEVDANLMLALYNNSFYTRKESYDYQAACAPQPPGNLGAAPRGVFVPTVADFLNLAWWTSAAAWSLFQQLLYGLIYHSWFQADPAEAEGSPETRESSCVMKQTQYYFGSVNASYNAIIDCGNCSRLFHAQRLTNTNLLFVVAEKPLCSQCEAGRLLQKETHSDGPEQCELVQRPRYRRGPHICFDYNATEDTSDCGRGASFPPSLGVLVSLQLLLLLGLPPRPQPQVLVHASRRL

## NCC1(CC(=O)O)CCCCC1 [Gabapentin]
α2δ-2
  binding to α2δ-2: bind

## O=C(CC(c1ccccc1)c1ccccc1)N1CCN(C(c2ccccc2)c2ccccc2)CC1 [NMED 160 (HCl)]
[1]
  inhibition of Ca2+ channel current (average current density): inhibition

B1: chicken α2δ subunit: α2δ-1 calcium channel subunit of White Leghorn chicken, SEQ ID NO:2, 1,087 amino acids (protein, listed as Gallus domesticus)
chain: MAAGWLLVFSLTLFQSLVMNHSSEGPFPSPTTIKSWVDKMQEDLITLARTASGVEQLAAIYLKNKDLYTVEANNPRQLVEIAARDIEKLLSNRSKALVRLAKEAEKYQASHQWRDEFGNNDIIYYNAKDDQNDPEKNDTESGSQRIRPVFEEDPVFRRQTSYQHAAVHIPTDIYEGSTIVLNELNWTAALDDVFKRNREEDPTLLWQVFGSATGLARYYPASPWVDNSRTPNKIDLYDVRRRPWYIQGAASPKDMLILVDASGSVSGLTLKLIRTSVIEMLETLSDDDFVNVVSFNNNAQNVSCFNHLVQANVRNKKKLKEAVDKISAKGITDYKKGFSYAFEQLLNHSVSRANCNKIIMLFTDGGEERAQEIFHKYNEDKKVRVFTFSVGQHNYDKGPIQWMACENKGYYYEIPSIGAIRINTQEYLDVLGRPMVLAGEKAKQVQWTNVYLDALELGLVITGTLPVFNLTKEQNGKINQLILGVMGVDVSLEDIKKLTPRFTLCPNGYYFAIDPNGYVLLHPNLQPKNPKSQEPVTLDFLDAELENDIKVEIRKKMIDGESGEKTFETLVKSQDERYIDKGNRTYTWTAVNGTDYSLALVLPSYSFYYIKAKIEEPITQARLEIKKDSETLKIDHFDEAGYTFIAPREYCTDVKKSENNTEFLLNFNEFIDRNTPSSPSCNTDMVIRVLLDAGFTNELAQNYWSKLYLDGVVAQFVVTDGGITRVFPKRAGEDWLENAETYEVSFYKRSLDNDNYIFTAPYYNKSGANSYESGIMVSKAVEITINGKLLKPAVVGIKIDAMKWMENFTTTTIKSLCNSEICGCEKNSMHVDCVILDDGGFLLMSNRDEYTHQIGRFFGEIDPGLMRNLINMSLYAFNKSYDYQSVCDPEEEPKQGAGLRSAYVPTIADILQLGWWASAAAWSILQQLFLSLTFPRFLEAADMEDDDFSTALPKTSCITEQTQYFFENDDKSFIGIVDCINCSRLYHAEKISNTNLVFIISDSQLLCRSCDPKPLMQAEKPDEGPNPCEMVKQPRYRKGPDVCFDEAKQEDSADCGGASGLSPSLWSMVGIQLVLLWLLSGSRHYQL
Rat α1B+β1b Ca2+ channel
  mean current density when coexpressed with chicken α2δ subunit: −74.5±14.0 pA/pF
